Assay results as given in PMC6222509, “Dibasic Derivatives of Phenylcarbamic Acid against Mycobacterial Strains: Old Drugs and New Tricks?” (Molecules : A Journal of Synthetic Chemistry and Natural …, 2018).
≈ marks a conversion by molar mass, not a printed value. Like-named read-outs stand apart in the source and are kept apart here.

Columns and labels:
[1] = tested on: M. kansasii DSM 44162 (MK DSM); experiment: in vitro antimycobacterial MIC, broth dilution micromethod in Middlebrook 7H9; type: cell-based; details: Mycobacterium kansasii, DSM 44162 / DSM 7, 168 h; 7-day cultivation, 37 °C; read-out: MIC MK DSM 7-d
[2] = tested on: M. smegmatis ATCC 700084 (MS); experiment: as above; type: cell-based, Mycobacterium smegmatis; details: Mycolicibacterium smegmatis, ATCC700084, 72 h; 3-day cultivation, 37 °C; read-out: MIC MS 3-d
[3] = tested on: M. marinum CAMP 5644 (MM); experiment: as above; type: cell-based, Mycobacterium marinum; details: Mycobacterium marinum, 504 h; 21-day cultivation, 28 °C; read-out: MIC MM 21-d
[4] = tested on: Mycobacterium tuberculosis CNCTC My 331/88 (identical with H37Rv and ATCC 2794; MTv H37Rv); experiment: in vitro antimycobacterial MIC, dilution micromethod in Šula's semisynthetic medium; type: cell-based; details: Mycobacterium tuberculosis
[5] = tested on: M. avium CNCTC My 330/80 (identical with ATCC 25291; MA 330/80); experiment: as above; type: cell-based, Mycobacterium avium; details: Mycobacterium avium
[6] = tested on: M. tuberculosis H37Ra ATCC 25177 (MTa H37Ra); experiment: in vitro antimycobacterial MIC, 96-well Middlebrook broth, alamarBlue; type: cell-based, Mycobacterium tuberculosis; details: Mycobacterium tuberculosis, 168 h, 7-day cultivation; read-out: MIC MTa H37Ra 7-d
Protocol: In vitro susceptibitity of given mycobacteria to reference drugs isoniazid (INH), ethambutol (EMB), ofloxacin (OFLX) or ciprofloxacin (CPX) was tested as well (Table 6 and Table 7).
A value of a minimum inhibitory concentration (MIC) was the lowest concentration of a tested compound, (i) which inhibited growth of MTv H37Rv, MK 235/80, MK 6509/96 and MA 330/80, respectively; (ii) at which no visible growth of MTa H37Ra, MS, MK DSM as well as MM was observed.
The molecules 1a–p were also in vitro screened against an avirulent M. tuberculosis H37Ra ATCC 25177 (MTa H37Ra), M. kansasii DSM 44162 (MK DSM), M. smegmatis ATCC 700084 (MS) and M. marinum CAMP 5644 (MM), respectively, in the Department of Infectious Diseases and Microbiology (Faculty of Veterinary Medicine, University of Veterinary and Pharmaceutical Sciences in Brno, Czech Republic).
Determination of a minimum inhibitory concentration (MIC) against MTa H37Ra. The mycobacterium was grown on Middlebrook broth (MB; MiddleBrook Pharmaceuticals, Inc., Westlake, TX, USA), supplemented with Oleic-Albumin-Dextrose-Catalase (OADC) supplement (Difco, Lawrence, KS, USA) and salicylate-derived mycobactin J (2 μg/mL; Allied Monitor Inc., Fayette, MO, USA), an iron-binding siderophore.
At log phase growth, a culture sample (10 mL) was centrifuged at 15,000 rpm/20 min using a bench top centrifuge MPW-65R (MPW Med Instruments, Warsaw, Poland). Following removal of the supernatant, a pellet was washed in fresh liquid Middlebrook 7H9GC broth (MiddleBrook Pharmaceuticals, Inc.) and re-suspended in a fresh OADC-supplemented MB (10 mL).
Turbidity was adjusted to match the McFarland standard No. 1 [87] containing approximately 3 × 10^8 Colony Forming Units (CFU) with MB broth. Further 1:20 dilution of the culture was performed in MB broth.
Susceptibility of MTa H37Ra was investigated in a 96-well plate format. In the experiments, sterile deionized water (300 µL) was added to all outer-perimeter wells of the plates to minimize evaporation of the medium in test wells during incubation. Each evaluated compound (100 µL) was incubated with MTa H37Ra (100 µL). Dilutions of each compound were prepared in triplicate and final concentrations varied from 1000 μg/mL to 8 μg/mL. All tested molecules were dissolved in DMSO (Sigma-Aldrich, Irvine, UK), and subsequent dilutions were made in supplemented MB broth. The plates were sealed with parafilm and incubated at 37 °C for 7 days.
Following incubation, 10% addition a water-soluble dye, the alamarBlue reagent (AbD Serotec, Kidlington, UK) was mixed into each well. This resaurin-based reagent served as an oxidation-reduction indicator of metabolic function and cellular health in cell viability bioassays.
Absorbance readings at 570 nm and 600 nm were taken, initially for background subtraction and after 24h re-incubation. The subtraction is necessary for strongly colored compounds, where the color may interfere with the interpretation of any color change. For non-interfering compounds, a blue color in a well was interpreted as absence of growth and pink color was scored as growth.
The minimum inhibitory concentration (MIC) was defined as the lowest concentration of a compound, at which no visible bacterial growth was observed. In other words, the MIC was the lowest concentration that prevented visual color change from blue to pink.

[7] = tested on: M. kansasii CNCTC My 235/80 (identical with ATCC 12478; MK 235/80); experiment: in vitro antimycobacterial MIC, dilution micromethod in Šula's semisynthetic medium; type: cell-based, Mycobacterium kansasii; details: Mycobacterium kansasii
[8] = tested on: white mice; details: subcutaneous application; cited from earlier work
[9] = tested on: rabbit cornea; set-up: method as in PMID 8402965; details: 0.01 M cocaine as standard; cited from earlier work
[10] = tested on: guinea pig; set-up: method as in PMID 8402965; details: intradermal, 0.02 M procaine as standard; cited from earlier work
[11] = 336 h, 14-day cultivation, read-out: MIC MTv H37Rv 14-d
[12] = 504 h, 21-day cultivation, read-out: MIC MTv H37Rv 21-d
[13] = ATCC25291, 336 h, 14-day cultivation, read-out: MIC MA 330/80 14-d
[14] = ATCC25291, 504 h, 21-day cultivation, read-out: MIC MA 330/80 21-d
[15] = ATCC12478, 168 h, 7-day cultivation, read-out: MIC MK 235/80 7-d
[16] = ATCC12478, 336 h, 14-day cultivation, read-out: MIC MK 235/80 14-d
[17] = ATCC12478, 504 h, 21-day cultivation, read-out: MIC MK 235/80 21-d

Structure (SMILES) | MIC [2] [µM] | MIC [3] [µM] | MIC [4, 11] [µM] | MIC [4, 12] [µM] | MIC [5, 13] [µM] | MIC [5, 14] [µM] | MIC [7, 15] [µM] | MIC [7, 16] [µM] | MIC [7, 17] [µM] | LD50 [8] [mg/kg] | Us, index of relative surface local anesthetic efficiency [9] | Ui, index of relative infiltration local anesthetic efficiency [10] | further results
O=C(O)c1cn(C2CC2)c2cc(N3CCNCC3)c(F)cc2c1=O [CPX, ciprofloxacin, reference compound] | 0.4 (≈ 0.133 µg/mL) | 0.8 (≈ 0.265 µg/mL) |  |  |  |  |  |  |  |  |  |  | MIC [1]: 3 µM (≈ 0.994 µg/mL)
CC[C@@H](CO)NCCN[C@@H](CC)CO [EMB, ethambutol, reference compound] |  |  | 1 (≈ 0.204 µg/mL) | 2 (≈ 0.409 µg/mL) | 16 (≈ 3.27 µg/mL) | 16 (≈ 3.27 µg/mL) |  |  |  |  |  |  | MIC ([5]; ATCC25291, cultivation time not given, read-out: MIC MA 330/80): 16 µM (≈ 3.27 µg/mL)
NNC(=O)c1ccncc1 [INH, isoniazid, reference compound] | 117 (≈ 16 µg/mL) | 467 (≈ 64 µg/mL) | 0.5 (≈ 0.0686 µg/mL) | 1 (≈ 0.137 µg/mL) | > 250 | > 250 | > 250 | > 250 | > 250 |  |  |  | MIC [6]: 36.5 µM (≈ 5.01 µg/mL)
CC1COc2c(N3CCN(C)CC3)c(F)cc3c(=O)c(C(=O)O)cn1c23 (stereo not shown) [OFLX, ofloxacin, reference compound] |  |  | 1 (≈ 0.361 µg/mL) | 2 (≈ 0.723 µg/mL) | 32 (≈ 11.6 µg/mL) | 62.5 (≈ 22.6 µg/mL) | 0.5 (≈ 0.181 µg/mL) | 1 (≈ 0.361 µg/mL) | 1 (≈ 0.361 µg/mL) |  |  |  | 
COC(=O)[C@H]1[C@@H](OC(=O)c2ccccc2)C[C@@H]2CC[C@H]1N2C [cocaine] |  |  |  |  |  |  |  |  |  | 125 | 1.0 | 3.6 | 
CCN(CC)CCOC(=O)c1ccc(N)cc1 [procaine] |  |  |  |  |  |  |  |  |  | 600 | 0.1 | 1.0 | 
